Data from patent publication US12637471B2, “Heterocyclic compounds, compositions, methods of preparation and uses thereof” (Organon R&D Finland Ltd, priority 2021, dated 2026).

How the values were obtained:
Assay type in all cases: biochemical
[1] = molecular target: T1, Recombinant human aldo-keto reductase family 1 member C2 (AKR1C2) protein (Homo sapiens, UniProt P52895); assay: Inhibition of the aldo-keto reductase family 1 member C2, 3H-dihydrotestosterone conversion; settings: inhibitor at 10 μM
T1 construct: made in house; host or cells: Sf-9 insect cells (baculovirus)
T1 sequence (P52895 1-323): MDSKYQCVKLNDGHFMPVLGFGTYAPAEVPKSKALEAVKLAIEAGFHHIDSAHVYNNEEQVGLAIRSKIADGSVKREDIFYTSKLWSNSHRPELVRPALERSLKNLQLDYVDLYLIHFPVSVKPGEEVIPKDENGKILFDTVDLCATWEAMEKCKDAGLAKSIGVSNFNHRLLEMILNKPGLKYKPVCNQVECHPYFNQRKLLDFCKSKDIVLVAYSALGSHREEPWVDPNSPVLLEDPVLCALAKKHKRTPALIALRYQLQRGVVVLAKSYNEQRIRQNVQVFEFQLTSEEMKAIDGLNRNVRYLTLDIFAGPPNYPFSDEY
Method in brief: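 Sf-9-expressed enzyme (13.6 nM) incubated 45 min at 37 °C in 20 mM KH2PO4 pH 7.4 with 1 mM NADPH, 6.25 nM [3H]dihydrotestosterone and 10 μM compound (1% DMSO). After TCA stop, substrate and 5α-androstane-3α,17β-diol resolved by UPLC with radio-detection; inhibition from percent conversion.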

[2] = molecular target: T2, 17β-Hydroxysteroid Dehydrogenase Type 2 Enzyme (17β-HSD2) (Homo sapiens, UniProt P37059); assay: Inhibition of the 17β-hydroxysteroid dehydrogenase type 2 enzyme, 3H-testosterone conversion; settings: inhibitor at 10 μM
T2 construct: made in house; host or cells: Sf-9 insect cells (baculovirus)
T2 sequence (P37059 1-387): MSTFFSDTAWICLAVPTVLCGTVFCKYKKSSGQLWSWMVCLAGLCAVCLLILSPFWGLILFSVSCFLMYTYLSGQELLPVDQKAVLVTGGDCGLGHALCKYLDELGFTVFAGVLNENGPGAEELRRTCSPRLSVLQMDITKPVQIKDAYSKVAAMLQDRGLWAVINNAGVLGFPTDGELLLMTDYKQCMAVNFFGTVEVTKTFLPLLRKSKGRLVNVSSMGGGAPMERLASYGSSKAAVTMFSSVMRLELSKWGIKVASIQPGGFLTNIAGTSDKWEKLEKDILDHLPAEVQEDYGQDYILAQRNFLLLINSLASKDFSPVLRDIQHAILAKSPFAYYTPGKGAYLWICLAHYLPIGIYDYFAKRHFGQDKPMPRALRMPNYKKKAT
Method in brief: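 Recombinant human 17β-HSD2 (Sf-9/baculovirus; 105 nM) incubated with 56.25 nM ³H-testosterone and 1 mM NAD in 20 mM KH2PO4 pH 8.5, 1 mM EDTA, 1% DMSO, 30 min at RT, inhibitor 10 μM. Reaction stopped with TCA; conversion to ³H-androstenedione by radio-UPLC gives percent inhibition.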

[3] = molecular target: T3, Recombinant human AKR1C3 (17β-HSD5) protein (Homo sapiens, UniProt P42330); assay: Inhibition of AKR1C3 (17β-hydroxysteroid dehydrogenase type 5) enzyme, fluorescence assay; settings: inhibitor at 500 nM
T3 construct: made in house; host or cells: E. coli
T3 sequence (P42330 1-323): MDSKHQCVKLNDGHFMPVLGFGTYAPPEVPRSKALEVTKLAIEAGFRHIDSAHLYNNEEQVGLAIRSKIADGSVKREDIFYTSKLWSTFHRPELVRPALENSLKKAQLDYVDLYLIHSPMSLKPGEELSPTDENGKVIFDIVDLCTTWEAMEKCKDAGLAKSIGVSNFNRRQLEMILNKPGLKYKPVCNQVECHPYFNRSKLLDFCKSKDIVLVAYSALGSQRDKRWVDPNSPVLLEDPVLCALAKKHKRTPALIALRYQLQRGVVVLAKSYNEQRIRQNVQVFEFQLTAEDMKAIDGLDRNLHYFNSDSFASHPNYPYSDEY
Method in brief: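 E. coli-expressed human AKR1C3 (27 nM) in 20 mM KH2PO4, 1 mM EDTA, pH 7.4, with 1 μM pyranoquinolinone ketone substrate, 1 mM NADPH and inhibitor at 500 nM, 1% DMSO, 60–120 min at RT. Fluorescent alcohol product (ex 420/em 510 nm) quantified against standards; inhibition derived from conversion percentages.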

| inhibition at 10 µM [1] [%] | inhibition at 10 µM [2] [%] | inhibition at 0.5 µM [3] [%] | SMILES |
| --- | --- | --- | --- |
| 7 | 9 | 94 | N#CC(=C1CCN(C(=O)N2CCC(CCO)CC2)CC1)c1ccc(C(F)(F)F)cc1 [Compound 149, 2-(1-(4-(2-hydroxyethyl)piperidine-1-carbonyl)piperidin-4-ylidene)-2-(4-(trifluoromethyl)phenyl)acetonitrile] |
| 34 | 18 | 99 | N#CC(=C1CCN(C(=O)N2CCc3nocc3C2)CC1)c1ccc(Cl)s1 [Compound 160, 2-(5-chlorothiophen-2-yl)-2-(1-(4,5,6,7-tetrahydroisoxazolo[4,3-c]pyridine-5-carbonyl)piperidin-4-ylidene)acetonitrile] |
| 10 | 15 | 100 | CCN(CC)C(=O)N1CCC(=C(C#N)c2ccc(Cl)cc2)CC1 [Compound 105, 4-((4-chlorophenyl)(cyano)methylene)-N,N-diethylpiperidine-1-carboxamide] |
| 6 | -2 | 92 | N#CC(=C1CCN(C(=O)N2CCSCC2)CC1)c1ccc(F)cc1 [Compound 100, 2-(4-fluorophenyl)-2-(1-(thiomorpholine-4-carbonyl)piperidin-4-ylidene)acetonitrile] |
| 7 | -1 | 97 | N#CC(=C1CCN(C(=O)N2CCn3ncnc3C2)CC1)c1ccc(OC(F)(F)F)cc1 [Compound 167, 2-(1-(5,6,7,8-tetrahydro-[1,2,4]triazolo[1,5-a]pyrazine-7-carbonyl)piperidin-4-ylidene)-2-(4-(trifluoromethoxy)phenyl)acetonitrile] |
| 29 | 50 | 99 | CCN(CC)C(=O)N1CCC(=C(C#N)c2ccc(Cl)s2)CC1 [Compound 173, 4-((5-chlorothiophen-2-yl)(cyano)methylene)-N,N-diethylpiperidine-1-carboxamide] |
| 43 | 20 | 99 | N#CC(=C1CCN(C(=O)N2CCc3[nH]ncc3C2)CC1)c1ccc(Cl)s1 [Compound 120, 2-(5-chlorothiophen-2-yl)-2-(1-(4,5,6,7-tetrahydro-1H-pyrazolo[4,3-c]pyridine-5-carbonyl)piperidin-4-ylidene)acetonitrile] |
| 12 | 26 | 96 | N#CC(=C1CCN(C(=O)N2CCc3cc(F)ccc32)CC1)c1ccc(F)cc1 [Compound 109, 2-(1-(5-fluoroindoline-1-carbonyl)piperidin-4-ylidene)-2-(4-fluorophenyl)acetonitrile] |
| 3 | 4 | 92 | N#CC(=C1CCN(C(=O)N2CCC(C(F)(F)F)CC2)CC1)c1ccc(Cl)cn1 [Compound 135, 2-(5-chloropyridin-2-yl)-2-(1-(4-(trifluoromethyl)piperidine-1-carbonyl)piperidin-4-ylidene)acetonitrile] |
| 6 | 15 | 99 | Cn1ncc2cccc(C(C#N)=C3CCN(C(=O)N4CCc5[nH]ncc5C4)CC3)c21 [Compound 119, 2-(1-methyl-1H-indazol-7-yl)-2-(1-(4,5,6,7-tetrahydro-1H-pyrazolo[4,3-c]pyridine-5-carbonyl)piperidin-4-ylidene)acetonitrile] |

Further lines, the molecule ahead of its results:

| SMILES | inhibition at 10 µM [1] [%] | inhibition at 10 µM [2] [%] | inhibition at 0.5 µM [3] [%] |
| --- | --- | --- | --- |
| CC(=O)n1ncc2c(C(C#N)=C3CCN(C(=O)N4CCc5nocc5C4)CC3)cccc21 [Compound 93, 2-(1-acetyl-1H-indazol-4-yl)-2-(1-(4,5,6,7-tetrahydroisoxazolo[4,3-c]pyridine-5-carbonyl)piperidin-4-ylidene)acetonitrile] | 11 | 23 | 98 |
| N#CC(=C1CCN(C(=O)N2Cc3ccccc3C2)CC1)c1ccc(F)cc1 [Compound 11, 2-(4-fluorophenyl)-2-(1-(isoindoline-2-carbonyl)piperidin-4-ylidene)acetonitrile] | 17 | 24 | 96 |
| N#CC(=C1CCN(C(=O)N2CCC(CCO)CC2)CC1)c1ccc(F)cc1 [Compound 97, 2-(4-fluorophenyl)-2-(1-(4-(2-hydroxyethyl)piperidine-1-carbonyl)piperidin-4-ylidene)acetonitrile] | 9 | 9 | 96 |
| N#CC(=C1CCN(C(=O)N2CCc3[nH]ncc3C2)CC1)c1ccc(F)cc1 [Compound 25, 2-(4-fluorophenyl)-2-(1-(4,5,6,7-tetrahydro-1H-pyrazolo[4,3-c]pyridine-5-carbonyl)piperidin-4-ylidene)acetonitrile] | 28 | 27 | 98 |
| CN(C(=O)N1CCC(=C(C#N)c2ccc(Cl)cc2)CC1)C1CCOCC1 [Compound 69, 4-((4-chlorophenyl)(cyano)methylene)-N-methyl-N-(tetrahydro-2H-pyran-4-yl)piperidine-1-carboxamide] | 16 | 10 | 98 |
| N#CC(=C1CCN(C(=O)N2CCC(O)CC2)CC1)c1ccc(F)c(F)c1 [Compound 41, 2-(3,4-difluorophenyl)-2-(1-(4-hydroxypiperidine-1-carbonyl)piperidin-4-ylidene)acetonitrile] | 7 | 7 | 96 |
| N#CC(=C1CCN(C(=O)N2CCC(O)CC2)CC1)c1cncc(Cl)c1 [Compound 86, 2-(5-chloropyridin-3-yl)-2-(1-(4-hydroxypiperidine-1-carbonyl)piperidin-4-ylidene)acetonitrile] | 0 | 27 | 80 |
| COC1CCN(C(=O)N2CCC(=C(C#N)c3ccc(F)cc3F)CC2)CC1 [Compound 91, 2-(2,4-difluorophenyl)-2-(1-(4-methoxypiperidine-1-carbonyl)piperidin-4-ylidene)acetonitrile] | 23 | 23 | 99 |
| COCC1CCN(C(=O)N2CCC(=C(C#N)c3ccc(Cl)s3)CC2)CC1 [Compound 75, 2-(5-chlorothiophen-2-yl)-2-(1-(4-(methoxymethyl)piperidine-1-carbonyl)piperidin-4-ylidene)acetonitrile] | 13 | 23 | 94 |
| N#CC(=C1CCN(C(=O)N2CC(C#N)C2)CC1)c1ccc(F)cc1 [Compound 23, 1-(4-(cyano(4-fluorophenyl)methylene)piperidine-1-carbonyl)azetidine-3-carbonitrile] | 13 | 1 | 96 |
| N#CC(=C1CCN(C(=O)N2CCC(CO)CC2)CC1)c1ccc(OC(F)(F)F)cc1 [Compound 53, 2-(1-(4-(hydroxymethyl)piperidine-1-carbonyl)piperidin-4-ylidene)-2-(4-(trifluoromethoxy)phenyl)acetonitrile] | 7 | 15 | 97 |
| CN(C)C(=O)N1CCC(=C(C#N)c2ccc(F)cc2)CC1 [Compound 16, 4-(cyano(4-fluorophenyl)methylene)-N,N-dimethylpiperidine-1-carboxamide] | 8 | 14 | 97 |
